Data on 15 molecules can be found in PubChem BioAssay (NCI).

Each structure is given as a SMILES string.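 Test compounds were applied to cells in 96-well plates for 48 hours at 5 doses. GI50 is the concentration that inhibits growth by half. Definition used: TGI = concentration required for complete inhibition of growth.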

Test systems include HT29 colon; A549 NSCLC; SW-620 colon; SK-MEL-5 melanoma; SNB-19 CNS; OVCAR-5 ovarian; KM12 colon; ACHN renal; NCI-H226 lung; HL-60(TB) leukemia.
Common to all, as to test: growth of human tumour cells (NCI), 48 h

On to `C[n+]1c(-c2ccc(/C=N\Nc3ccnc(N/N=C/c4ccc(-c5cn6ccsc6[n+]5C)cc4)n3)cc2)cn2ccsc21`, for which the TGI is over 100 µM in the assay with HT29 colon; over 100 µM in the assay with A549 NSCLC; over 100 µM in the assay with SW-620 colon; 35.4 µM with SK-MEL-5 melanoma; over 100 µM in the assay with SNB-19 CNS; over 100 µM in the assay on OVCAR-5 ovarian. In addition, the TGI is 84.5 µM in the assay with KM12 colon, over 100 µM in the assay with ACHN renal, 66.7 µM with NCI-H226 lung and 57.4 µM in the assay with HL-60(TB) leukemia.

With `O=Nn1c2ccccc2c2ccccc21`, the TGI in the assay on HT29 colon, with A549 NSCLC, in the assay on SW-620 colon, in the assay on SK-MEL-5 melanoma, in the assay on SNB-19 CNS and in the assay with OVCAR-5 ovarian was over 100 µM each time. For the same molecule, the TGI with KM12 colon, in the assay with ACHN renal, in the assay with NCI-H226 lung and in the assay on HL-60(TB) leukemia was over 100 µM in each case.

Turning to `CC(C)=NC(C(=O)O)C(C)(C)S` (centres undefined), the TGI with HT29 colon, with A549 NSCLC, with SW-620 colon, in the assay on SNB-19 CNS, with OVCAR-5 ovarian and with KM12 colon was over 100 µM throughout. In addition, the TGI in the assay on ACHN renal, with NCI-H226 lung and with HL-60(TB) leukemia was over 100 µM in each case.

Consider `CCOC(=O)CCCc1cc(=O)c2c(C)c3[nH]c4ccc(Cl)cc4c3c(C)c2[nH]1`, for which the TGI is 53.8 µM in the assay with HT29 colon; 43.5 µM in the assay on A549 NSCLC; over 100 µM with SW-620 colon; 49.2 µM with SK-MEL-5 melanoma; 60.7 µM with SNB-19 CNS; over 100 µM in the assay on OVCAR-5 ovarian. Besides, the TGI is over 100 µM in the assay on KM12 colon, 80.3 µM in the assay on ACHN renal, 61 µM in the assay with NCI-H226 lung and 82.3 µM with HL-60(TB) leukemia.

Regarding `COc1ncnc2c(Cl)c(C(O)c3ccccc3)c(Cl)cc12` (centres undefined), the TGI was over 100 µM with HT29 colon; over 100 µM with A549 NSCLC; 92.6 µM with SW-620 colon; over 100 µM in the assay on SK-MEL-5 melanoma; 79.9 µM in the assay on SNB-19 CNS; over 100 µM in the assay with OVCAR-5 ovarian. Besides, the values for the TGI in the assay on KM12 colon, in the assay with ACHN renal and in the assay with HL-60(TB) leukemia were over 100 µM, 97.2 µM and over 100 µM, respectively.

Regarding `OCC1NC(CO)C(O)C1O` (centres undefined), the TGI with HT29 colon, in the assay on SW-620 colon, in the assay with SK-MEL-5 melanoma, in the assay on SNB-19 CNS, in the assay with OVCAR-5 ovarian and in the assay on KM12 colon was over 100 µM in each case. In addition, the TGI in the assay on NCI-H226 lung and with HL-60(TB) leukemia was over 100 µM each time.

For the molecule `CC=C/C=C/[C@@H]1O[C@](O)([C@H](CC)C(=O)NC/C=C/C=C(\C)[C@@H](OC)[C@@H](C)[C@@H]2O[C@H](/C=C/C=C/C=C(\C)C(=O)c3c(O)cc[nH]c3=O)[C@H](O)[C@@H]2O)[C@H](O)[C@H](O)C1(C)C`, the TGI with HT29 colon, in the assay on A549 NSCLC, in the assay on SW-620 colon, with SNB-19 CNS, with OVCAR-5 ovarian and in the assay with KM12 colon was over 100 µM throughout. Also, the TGI in the assay on ACHN renal and in the assay on HL-60(TB) leukemia was over 100 µM in each case.

On to `COc1ccc(CCn2ccc(C)n2)c(OC)c1`, for which the TGI in the assay on HT29 colon, with A549 NSCLC, in the assay with SW-620 colon, with SK-MEL-5 melanoma, with SNB-19 CNS and in the assay on OVCAR-5 ovarian was over 100 µM each time. Further, the TGI with KM12 colon and in the assay with ACHN renal was over 100 µM throughout.

Take `CC(C)N(CCNc1nc(C(Cl)(Cl)Cl)nc2cc(Cl)ccc12)C(C)C`: the GI50 in the assay with HT29 colon was 0.523 µM; with A549 NSCLC, 1.67 µM; in the assay on SW-620 colon, 1.48 µM; in the assay on SK-MEL-5 melanoma it was 1.56 µM; in the assay with SNB-19 CNS, 1.9 µM; in the assay on OVCAR-5 ovarian, 1.16 µM. In addition, the GI50 in the assay on KM12 colon was 1.32 µM; in the assay on ACHN renal, 1.29 µM; with NCI-H226 lung, 1.68 µM; in the assay with HL-60(TB) leukemia it was 1.52 µM. Besides, the TGI in the assay with HT29 colon turned out to be 1.85 µM; in the assay on A549 NSCLC, 3.15 µM; in the assay with SW-620 colon it was 3.09 µM; with SK-MEL-5 melanoma it was 2.93 µM; with SNB-19 CNS it was 4.78 µM; in the assay with OVCAR-5 ovarian, 2.48 µM. The TGI stood at 2.83 µM in the assay on KM12 colon, 2.66 µM with ACHN renal, 3.57 µM in the assay on NCI-H226 lung and 3.6 µM in the assay with HL-60(TB) leukemia.

With `Nc1nc(N)c(N=Nc2ccccc2)c(=O)[nH]1`, the TGI in the assay on HT29 colon, in the assay on A549 NSCLC, in the assay on SW-620 colon, in the assay on SK-MEL-5 melanoma, in the assay with SNB-19 CNS and in the assay on OVCAR-5 ovarian was over 100 µM in each case. Also, the TGI is over 100 µM with KM12 colon, 96.7 µM with ACHN renal, over 100 µM in the assay on NCI-H226 lung and over 100 µM with HL-60(TB) leukemia.

As for `O=S1(=O)C[C@H](NCc2ccccc2)[C@H](NCc2ccccc2)C1`, the TGI in the assay on HT29 colon, in the assay on A549 NSCLC, in the assay with SW-620 colon, in the assay on SK-MEL-5 melanoma, in the assay on SNB-19 CNS and in the assay on OVCAR-5 ovarian was over 100 µM in each case. The TGI with KM12 colon, in the assay with ACHN renal and in the assay on NCI-H226 lung was over 100 µM throughout.

For the molecule `CCOP(=O)(OCC)C(Cc1c[nH]c2ccccc12)C(=O)O` (centres undefined), the TGI with HT29 colon, in the assay on A549 NSCLC, in the assay with SW-620 colon, in the assay with SK-MEL-5 melanoma, in the assay on SNB-19 CNS and with OVCAR-5 ovarian was over 100 µM throughout. The TGI with ACHN renal, in the assay on NCI-H226 lung and in the assay with HL-60(TB) leukemia was over 100 µM each time.

Turning to `O=C(Nc1ccc(C(F)(F)F)cc1[N+](=O)[O-])C(=O)Nn1c(=S)[nH]c2ccccc2c1=O`, the TGI with HT29 colon, with A549 NSCLC, with SW-620 colon, in the assay on SK-MEL-5 melanoma, in the assay with SNB-19 CNS and in the assay with OVCAR-5 ovarian was over 100 µM in each case. The TGI in the assay with KM12 colon, in the assay on ACHN renal, with NCI-H226 lung and in the assay on HL-60(TB) leukemia was over 100 µM throughout.

`Cc1ccc(S(=O)(=O)NCCCSCCN)cc1`: the TGI in the assay on HT29 colon, in the assay on A549 NSCLC, with SW-620 colon, with SK-MEL-5 melanoma, in the assay with SNB-19 CNS and with KM12 colon was over 100 µM each time. The TGI with ACHN renal, with NCI-H226 lung and in the assay with HL-60(TB) leukemia was over 100 µM each time.

For `COc1ccc(/C=C/c2cc(O)cc(OC3OC(CO)C(O)C(O)C3O)c2)cc1O` (centres undefined), the TGI with HT29 colon, with A549 NSCLC, in the assay with SW-620 colon, with SK-MEL-5 melanoma, in the assay with SNB-19 CNS and in the assay on OVCAR-5 ovarian was over 100 µM in each case. For the same molecule, the TGI with KM12 colon was 86.5 µM; in the assay with ACHN renal, over 100 µM; in the assay with NCI-H226 lung, over 100 µM; in the assay on HL-60(TB) leukemia, over 100 µM.
